Columns and labels:
[1] = Hydrolysis stability in tris buffer; format: physicochemical
Protocol: (§1) PREPARATION OF TRIS BUFFER
(§2) 0.05 M tris buffer was made by dissolving 6.05 grams of tris-(hydroxymethyl)-methylamine in 1000 ml. of water, and adjusting the pH to 7.2 by the addition of 0.1 M HCl.
(§3) Standard solutions of 1×10^-4 M Compound A in analytical grade methanol (0.01 ml) were prepared, and tested in the simulated gastric and intestinal fluids, in tris buffer alone, in tris buffer with added hog liver esterase and also in serum. The solutions under test were incorporated in 1 ml. of each of the test fluids. A temperature of 30° C. was used for the assays involving the hog liver esterase, whereas a temperature of 37° C. was used for the assays involving the simulated gastric and intestinal fluids and the serum. After this, the mixture was allowed to stand and the supernatant liquid was spotted onto silica t.l.c. plates and developed in 90:10 chloroform/methanol. The mixture was then extracted with 5 mls of chloroform and the chloroform-containing mixture was filtered through phase-separating papers, which allow only the chloroform solution to pass through. The chloroform solution was also spotted onto silica t.l.c. plates and developed in 90:10 chloroform/methanol.

in vitro = in vitro ADME, hog; details: pig, pH 7.2; tris buffer plus hog liver esterase, 30° C.
Protocol: as §1, §2, §3

hog liver esterase = test: in vitro; format: in vitro ADME; details: 30° C.
Protocol: as §1, §2, §3

[2] = Hydrolysis stability in human serum; format: in vitro ADME; details: 37° C.; for half-life: human serum from two volunteers
Protocol: The serum used in the assays was prepared by taking whole blood into plain tubes, incubating for one hour at 37° C., and then centrifuging at 2000 RPM for 10 minutes.
as §3

[3] = Hydrolysis stability in simulated gastric fluid; format: physicochemical
Protocol: (§4) In order first to evaluate the stability of Compound A in the gastro-intestinal tract, simulated gastric and intestinal fluids and other test fluids were prepared as follows:
PREPARATION OF SIMULATED GASTRIC FLUID
0.35 gram of sodium chloride, 0.5 gram of glycine and 94 ml of M hydrochloric acid were mixed, and the volume was then made up to 1000 ml with distilled water. The pH of this system was about 1.79.
as §3

[4] = Hydrolysis stability in simulated intestinal fluid; format: physicochemical
Protocol: as §4
PREPARATION OF SIMULATED INTESTINAL FLUID
6.1 grams of monobasic potassium phosphate and 3.9 grams of disodium hydrogen phosphate were dissolved in 1000 ml. of water. The pH of the resulting solution was 6.85.
as §3

[5] = test system: yeast-induced hyperthermia; test: Antipyretic activity, yeast-induced hyperthermia test in rats; format: in vivo, male Charles River rats; details: compared with NAPA, equimolar basis, oral
Protocol: (D)--Investigation of Antipyretic Activity in Rats
Using the conventional procedure for the yeast-induced hyperthermia test, several groups of 10 male Charles River rats were given a subcutaneous injection of dried yeast. Immediately after the injection they were then medicated orally with respectively:
100 mg/kg of N-acetyl-para-aminophenol (NAPA);
80 mg/kg of NAPA+43.0 mg/kg of Compound A; and
60 mg/kg of NAPA+86.0 mg/kg of Compound A.
In the mixtures the amount of Compound A, N-acetyl-para-aminophenyl N'-acetyl-D,L-methionate, used was in each case equimolar with the 10%, 20% or 40% reduction in the amount of NAPA, so that all the medications were carried out at a level equivalent to 100 mg/kg of NAPA.

[6] = test system: Charles River (CD-1 COBS) albino mice; test: in vivo
Protocol: (E)--Investigation of Acute Oral Toxicity in Mice
Charles River (CD-1 COBS) albino mice, 20-22 g in weight, were kept for some days in an air-conditioned animal house and fed with a standard diet (sterile VAR granules). They were fasted overnight before experiment, with water ad libitum. 15 Male mice and 15 female mice were used for each experiment.
N-Acetyl-para-aminophenol (NAPA) and N-acetyl-para-aminophenyl N'-acetyl-D,L-methionate (Compound A) were then administered to the mice, orally, as a suspension (shaken continuously with an electromagnetic agitator) in 5% gum arabic at a volume of 0.02 ml/g, either individually or in variously proportioned mixtures and at different dose levels, as shown in Table VII below.
A control group received only the 5% gum arabic vehicle.

In the case of `CSCCC(NC(C)=O)C(=O)Oc1ccc(NC(C)=O)cc1` (racemic) [Compound A, N-acetyl-para-aminophenyl N'-acetyl-D,L-methionate], the half-life ([1]; pH 7.2, tris buffer pH 7.2, 30° C.) is reported as roughly 7.92 h, the half-life ([1]; pH 7.2, tris buffer pH 7.2, 37° C.) is reported as 4 h and the half-life (in vitro) is reported as roughly 7.92 h. For the same molecule, the “effect of hog liver esterase on the rate of hydrolysis” value (hog liver esterase) was “no effect on the rate of hydrolysis”, the “effect of human serum on the rate of hydrolysis” value [2] was “increased the rate of hydrolysis” and the half-life [2] was 2.5 h. For the same molecule, the half-life ([2]; human, serum, read-out: half-life) was 2.33 h, the half-life ([3]; pH 1.79, simulated gastric fluid, pH about 1.79, 37° C.) was 40 h and the rate of hydrolysis ([3]; simulated gastric juice, 37° C.) was “very slow”. For the same molecule, the half-life ([4]; simulated intestinal fluid, pH 6.85, 37° C.) was 31.5 h, the rate of hydrolysis ([4]; simulated intestinal juice, 37° C.) was “very slow” and the antipyretic effect [5] was “virtually identical upon an equimolar basis of comparison with that of the well-tried analgesic NAPA”. For the same molecule, the behaviour / symptoms ([6]; mouse, in vivo) was “hypothermia, tremor, tail extension, epistaxis and acrocyanosis, followed by death” and the “LD50 compared with NAPA” value ([6]; oral, mice) was “several times greater than that of the well-tried analgesic NAPA”.
